Source: publication PMC4546618, “Casitas B-Lineage Lymphoma RING Domain Inhibitors Protect Mice against High-Fat Diet-Induced Obesity and Insulin Resistance” (PLoS ONE, 2015)
*1 amine or outer side, *2 acyl side, *3 side chain or, on linkers, in order; H or OH if unused. Where a SMILES comes first, the peptide text is derived from it. [ ]: non-standard residue; d: D form. Phe(4-NO2) = N[C@@H](Cc1ccc([N+](=O)[O-])cc1)C(=O)O; Phe(4-N3) = [N-]=[N+]=Nc1ccc(C[C@H](N)C(=O)O)cc1; X2 = CC(=O)CN(CCCC[C@H](N[*:1])C(=O)[*:2])C(C)=O; Phe(4-CF3) = N[C@@H](Cc1ccc(C(F)(F)F)cc1)C(=O)O; Pro(trans-4-F) = O=C(O)[C@@H]1C[C@@H](F)CN1; X1 = CC(=O)N(O)CCCC[C@H](N[*:1])C(=O)[*:2]; Phe(4-NH2) = Nc1ccc(C[C@H](N)C(=O)O)cc1; Phe(3-F) = N[C@@H](Cc1cccc(F)c1)C(=O)O; Phe(3-Me) = Cc1cccc(C[C@H](N)C(=O)O)c1; Phe(2-F) = N[C@@H](Cc1ccccc1F)C(=O)O; Phe(2-Me) = Cc1ccccc1C[C@H](N)C(=O)O; Cha = N[C@@H](CC1CCCCC1)C(=O)O; ΔPro = O=C(O)[C@@H]1C=CCN1; Pip = O=C(O)[C@@H]1CCCCN1; Thz = O=C(O)[C@@H]1CSCN1; Aze = O=C(O)[C@@H]1CCN1

These compounds were tested against T1, Cbl (RING) protein (Homo sapiens, UniProt P22681) (assay: Fluorescence polarization (FP) assay, competition with FITC-βA-PFKPP-NH2 probe). Settings: probe FITC-βA-PFKPP-NH2 100 nmol/L, Cbl (RING) protein 3 μmol/L, PBS pH 7.4.
T1 construct: including the linker and RING domain (codon 358–457); GST (Glutathione S-Transferase); made in house
T1 sequence (P22681 358-457): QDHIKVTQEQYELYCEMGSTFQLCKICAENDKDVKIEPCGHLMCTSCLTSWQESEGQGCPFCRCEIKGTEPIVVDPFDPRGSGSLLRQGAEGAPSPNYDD
Assay type: binding
Protocol: Peptides and peptide mimetics were purchased from MitenChem (China) with a purity ≥ 98%. Concentrations values of reconstituted peptides were determined by amino acid analysis at the protein core facility (Chengdu Medical College). The recombinant Cbl protein was produced by the Chengdu Medical College Protein Core Facility and was described previously. The c-Cbl (RING) protein, including the linker and RING domain (codon 358–457), was tagged with Glutathione S-Transferase (GST) and purified with GSH-Sepharose (Shanghai Biopharma).
The FP assay was developed and validated previously. Briefly, fluorescein-labeled probe (FITC-βA-PFKPP-NH2, 100 nmol/L) and Cbl (RING) protein (3 μmol/L) were mixed and diluted to the final concentration using 0.01% Triton X-100 in PBS (pH = 7.4). Then, 19 μl of this master mix was loaded to each reaction well. The peptides or peptide mimetics were then loaded to the designated wells (1 μl, 10 μmol/L– 0.078 μmol/L, half-fold dilutions). The total fluorescence and polarization values were measured at an excitation wavelength of 485 nm and an emission wavelength of 538 nm using a ZS-2 plate reader. The data was fitted, and the ΔmP, Kd, and Ki values were estimated, using SigmaPlot 11.0.

Row | Structure (SMILES) | Ki [µM]
1 | CC(=O)N1CCC[C@H]1C(=O)N[C@@H](Cc1cccc(F)c1)C(=O)N[C@@H](CCCCN)C(=O)N1CCC[C@H]1C(=O)N1CCC[C@@H]1C(N)=O [Peptide 17, Ac-P(h)KP(o)-NH2] (Ac-P[Phe(3-F)]KP[dP]-NH2) | 12.5 ± 0.9
2 | CC[C@H](C)[C@H](NC(=O)[C@H](C)NC(=O)[C@@H]1C[C@@H](F)CN1C(=O)[C@H](CCCCN)NC(C)=O)C(=O)N[C@@H](CCCCN)C(N)=O [Peptide 59, Ac-K(t)AIK-NH2] (Ac-K[Pro(trans-4-F)]AIK-NH2) | 145 ± 18.3
3 | CC(=O)CN(CCCC[C@H](NC(=O)[C@@H](NC(=O)[C@H](C)NC(=O)[C@@H]1CCCN1C(=O)[C@H](CCCCN(O)C(C)=O)NC(C)=O)[C@@H](C)O)C(N)=O)C(C)=O [Peptide 44, Ac-(v)PAT(w)-NH2] | 126 ± 22.6
4 | CC(=O)N1CCC[C@H]1C(=O)N[C@@H](Cc1ccc([N+](=O)[O-])cc1)C(=O)N[C@@H](CCCCN)C(=O)N1CCC[C@H]1C(=O)N1CCC[C@H]1C(N)=O [Peptide 13, Ac-P(k)KPP-NH2] (Ac-P[Phe(4-NO2)]KPP-NH2) | 4.2 ± 0.4
5 | CC(=O)CN(CCCC[C@H](NC(=O)[C@@H](NC(=O)[C@H](C)NC(=O)[C@@H]1CCCN1C(=O)[C@H](CCCCN)NC(C)=O)[C@@H](C)O)C(N)=O)C(C)=O [Peptide 43, Ac-KPAT(w)-NH2] (Ac-KPAT[X2]-NH2) | 72.6 ± 9.5
6 | CC(=O)N1CCC[C@H]1C(=O)N[C@@H](Cc1ccc(N)cc1)C(=O)N[C@@H](CCCCN)C(=O)N1CCC[C@H]1C(=O)N1CCC[C@H]1C(N)=O [Peptide 12, Ac-P(j)KPP-NH2] (Ac-P[Phe(4-NH2)]KPP-NH2) | 4.5 ± 0.8
7 | CC(=O)CN(CCCC[C@H](NC(C)=O)C(=O)N1CCC[C@H]1C(=O)N[C@@H](C)C(=O)N[C@H](C(=O)N[C@@H](CCCCN(O)C(C)=O)C(N)=O)[C@@H](C)O)C(C)=O [Peptide 45, Ac-(w)PAT(v)-NH2] | 196 ± 12.3
8 | CC(=O)N1CCC[C@H]1C(=O)N[C@@H](Cc1cccc(F)c1)C(=O)N[C@@H](CCCCN)C(=O)N1CCCC[C@H]1C(=O)N1CCC[C@H]1C(N)=O [Peptide 28, Ac-P(h)K(s)P-NH2] (Ac-P[Phe(3-F)]K[Pip]P-NH2) | 136 ± 11.2
9 | CC(=O)N[C@@H](CCCCN)C(=O)N1CCC[C@H]1C(=O)N[C@@H](C)C(=O)N[C@H](C(=O)N[C@@H](CCCCN(O)C(C)=O)C(N)=O)[C@@H](C)O [Peptide 42, Ac-KPAT(v)-NH2] (Ac-KPAT[X1]-NH2) | 59.8 ± 6.5
10 | CC(=O)N1CCC[C@H]1C(=O)N[C@@H](Cc1cccc(F)c1)C(=O)N[C@@H](CCCCN)C(=O)N1CC[C@H]1C(=O)N1CCC[C@H]1C(N)=O [Peptide 26, Ac-P(h)K(q)P-NH2] (Ac-P[Phe(3-F)]K[Aze]P-NH2) | > 250
11 | CC(=O)N1CCC[C@H]1C(=O)N[C@@H](Cc1ccc(C(F)(F)F)cc1)C(=O)N[C@@H](CCCCN)C(=O)N1CCC[C@H]1C(=O)N1CCC[C@H]1C(N)=O [Peptide 14, Ac-P(l)KPP-NH2] (Ac-P[Phe(4-CF3)]KPP-NH2) | 25.4 ± 0.7
12 | CC(=O)CN(CCCC[C@H](NC(C)=O)C(=O)N1CCC[C@H]1C(=O)N[C@@H](C)C(=O)N[C@H](C(=O)N[C@@H](CCCCN)C(N)=O)[C@@H](C)O)C(C)=O [Peptide 41, Ac-(w)PATK-NH2] (Ac-[X2]PATK-NH2) | 96.2 ± 12.6
13 | CC[C@H](C)[C@H](NC(=O)[C@@H]1CSCN1C(=O)[C@H](CCCCN)NC(C)=O)C(=O)N[C@H](C(=O)N[C@@H](CCCCN)C(N)=O)[C@@H](C)O [Peptide 55, Ac-K(r)ITK-NH2] (Ac-K[Thz]ITK-NH2) | 190 ± 19.2
14 | CC(=O)N[C@@H](CCCCN)C(=O)N1CCCC[C@H]1C(=O)N[C@@H](C)C(=O)N[C@H](C(=O)N[C@@H](CCCCN)C(N)=O)[C@@H](C)O [Peptide 50, Ac-K(s)ATK-NH2] (Ac-K[Pip]ATK-NH2) | 32.6 ± 10.9
15 | CC(=O)N1CCC[C@H]1C(=O)N[C@@H](Cc1cccc(F)c1)C(=O)N[C@@H](CCCCN)C(=O)N1CCC[C@@H]1C(=O)N1CCC[C@H]1C(N)=O [Peptide 24, Ac-P(h)K(o)P-NH2] (Ac-P[Phe(3-F)]K[dP]P-NH2) | 3.5 ± 0.4
16 | CC(=O)N1CCC[C@H]1C(=O)N[C@@H](Cc1ccccc1F)C(=O)N[C@@H](CCCCN)C(=O)N1CCC[C@H]1C(=O)N1CCC[C@H]1C(N)=O [Peptide 9, Ac-P(g)KPP-NH2] (Ac-P[Phe(2-F)]KPP-NH2) | 3.5 ± 0.6
17 | CC(=O)N[C@@H](CCCCN)C(=O)N1CC=C[C@H]1C(=O)N[C@@H](C)C(=O)N[C@H](C(=O)N[C@@H](CCCCN)C(N)=O)[C@@H](C)O [Peptide 47, Ac-K(p)ATK-NH2] (Ac-K[ΔPro]ATK-NH2) | 44.3 ± 13.2

Row | Structure (SMILES) | Ki [µM]
18 | CC(=O)N[C@@H](CCCCN)C(=O)N1CSC[C@H]1C(=O)N[C@@H](CC(C)C)C(=O)N[C@H](C(=O)N[C@@H](CCCCN)C(N)=O)[C@@H](C)O [Peptide 56, Ac-K(r)LTK-NH2] (Ac-K[Thz]LTK-NH2) | 226 ± 22.5
19 | CC(=O)N[C@@H](CCCCN)C(=O)N1CSC[C@H]1C(=O)N[C@H](C(=O)N[C@H](C(=O)N[C@@H](CCCCN)C(N)=O)[C@@H](C)O)[C@@H](C)O [Peptide 54, Ac-K(r)TTK-NH2] (Ac-K[Thz]TTK-NH2) | 201 ± 14.4
20 | CC(=O)N1CCC[C@H]1C(=O)N[C@@H](Cc1cccc(F)c1)C(=O)N[C@@H](CCCCN)C(=O)N1CCC[C@H]1C(=O)N1CC[C@H]1C(N)=O [Peptide 19, Ac-P(h)KP(q)-NH2] (Ac-P[Phe(3-F)]KP[Aze]-NH2) | > 250
21 | CC(=O)N1CCC[C@H]1C(=O)N[C@H](Cc1ccccc1)C(=O)N[C@@H](CCCCN)C(=O)N1CCC[C@H]1C(=O)N1CCC[C@H]1C(N)=O [Peptide 16, Ac-P(n)KPP-NH2] (Ac-P[dF]KPP-NH2) | 15.4 ± 0.4
22 | CC(=O)N1CCC[C@H]1C(=O)N[C@@H](Cc1ccccc1C)C(=O)N[C@@H](CCCCN)C(=O)N1CCC[C@H]1C(=O)N1CCC[C@H]1C(N)=O [Peptide 6, Ac-P(d)KPP-NH2] (Ac-P[Phe(2-Me)]KPP-NH2) | 10.2 ± 1.5
23 | CC(=O)N1CCCC[C@H]1C(=O)N[C@@H](Cc1cccc(F)c1)C(=O)N[C@@H](CCCCN)C(=O)N1CCC[C@H]1C(=O)N1CCC[C@H]1C(N)=O [Peptide 35, Ac-(s) (h)KPP-NH2] (Ac-[Pip][Phe(3-F)]KPP-NH2) | 122 ± 9.8
24 | CC(=O)N1CC=C[C@H]1C(=O)N[C@@H](Cc1cccc(F)c1)C(=O)N[C@@H](CCCCN)C(=O)N1CCC[C@H]1C(=O)N1CCC[C@H]1C(N)=O [Peptide 32, Ac-(p) (h)KPP-NH2] (Ac-[ΔPro][Phe(3-F)]KPP-NH2) | > 250
25 | CC(=O)N1CCC[C@H]1C(=O)N[C@@H](Cc1cccc(C)c1)C(=O)N[C@@H](CCCCN)C(=O)N1CCC[C@H]1C(=O)N1CCC[C@H]1C(N)=O [Peptide 7, Ac-P(e)KPP-NH2] (Ac-P[Phe(3-Me)]KPP-NH2) | 4.5 ± 1
26 | CC(=O)N1C[C@H](F)C[C@H]1C(=O)N[C@@H](Cc1cccc(F)c1)C(=O)N[C@@H](CCCCN)C(=O)N1CCC[C@H]1C(=O)N1CCC[C@H]1C(N)=O [Peptide 36, Ac-(t) (h)KPP-NH2] (Ac-[Pro(trans-4-F)][Phe(3-F)]KPP-NH2) | 14.5 ± 2.9
27 | CC(=O)N1CCC[C@H]1C(=O)N[C@@H](CC1CCCCC1)C(=O)N[C@@H](CCCCN)C(=O)N1CCC[C@H]1C(=O)N1CCC[C@H]1C(N)=O [Peptide 5, Ac-P(c)KPP-NH2] (Ac-P[Cha]KPP-NH2) | 125 ± 12.6
28 | CC(=O)N1CCC[C@H]1C(=O)N[C@@H](Cc1ccc(N=[N+]=[N-])cc1)C(=O)N[C@@H](CCCCN)C(=O)N1CCC[C@H]1C(=O)N1CCC[C@H]1C(N)=O [Peptide 15, Ac-P(m)KPP-NH2] (Ac-P[Phe(4-N3)]KPP-NH2) | 8.4 ± 0.4
29 | CC(=O)N1CCC[C@H]1C(=O)N[C@@H](Cc1cccc(F)c1)C(=O)N[C@@H](CCCCN)C(=O)N1CCC[C@H]1C(=O)N1C[C@H](F)C[C@H]1C(N)=O [Peptide 22, Ac-P(h)KP(t)-NH2] (Ac-P[Phe(3-F)]KP[Pro(trans-4-F)]-NH2) | 31.2 ± 0.4
30 | CC(=O)N1CCC[C@H]1C(=O)N[C@@H](Cc1cccc(F)c1)C(=O)N[C@@H](CCCCN)C(=O)N1CCC[C@H]1C(=O)N1CSC[C@H]1C(N)=O [Peptide 20, Ac-P(h)KP(r)-NH2] (Ac-P[Phe(3-F)]KP[Thz]-NH2) | 3.7 ± 0.4
31 | CC(=O)N[C@@H](CCCCN)C(=O)N1C[C@H](F)C[C@H]1C(=O)N[C@@H](C)C(=O)N[C@@H](C)C(=O)N[C@@H](CCCCN)C(N)=O [Peptide 57, Ac-K(t)AAK-NH2] (Ac-K[Pro(trans-4-F)]AAK-NH2) | 179 ± 10.2
32 | CC(=O)N1CCC[C@H]1C(=O)N[C@@H](Cc1cccc(F)c1)C(=O)N[C@@H](CCCCN)C(=O)N1C[C@H](F)C[C@H]1C(=O)N1CCC[C@H]1C(N)=O [Peptide 29, Ac-P(h)K(t)P-NH2] (Ac-P[Phe(3-F)]K[Pro(trans-4-F)]P-NH2) | 24.6 ± 5.8
33 | CC(=O)N[C@@H](CCCCN)C(=O)N1CSC[C@H]1C(=O)N[C@H](C(=O)N[C@H](C(=O)N[C@@H](CCCCN)C(N)=O)[C@@H](C)O)C(C)C [Peptide 53, Ac-K(r)VTK-NH2] (Ac-K[Thz]VTK-NH2) | 91.2 ± 6.6
